Experimental data published in US8952024B2, “Herbicidal pyrimidone derivatives” (E I du Pont de Nemours and Company, priority 2009, dated 2015).

Key:
Type in all cases: in vivo
rice (Oryza sativa) = assay: Test B flooded paddy test; conditions: for Plant response rating, Flood, Rice: 250 g ai/ha, flooded paddy test, visual rating on 0 to 100 scale (0 no effect, 100 complete control) after 13 to 15 days; for Plant response rating, Rice: Flood (flooded paddy test), 13 to 15 days; for Rice plant response rating: Flood, 31 g ai/ha, scale 0 to 100 (0 no effect, 100 complete control)
From the text: (§1) Plant species in the flooded paddy test consisted of rice (Oryza sativa), umbrella sedge (Cyperus difformis), ducksalad (Heteranthera limosa) and barnyardgrass (Echinochloa crus-galli) grown to the 2-leaf stage for testing. At the time of treatment, test pots were flooded with water to 3 cm above the soil surface, treated by application of test compounds directly to the paddy water, and then maintained at that water depth for the duration of the test.
(§2) Treated plants and controls were maintained in a greenhouse for 13 to 15 days, after which time all treated plants were visually evaluated and compared to controls. Plant response ratings, summarized in Table B, are based on a scale of 0 to 100 where 0 is no effect and 100 is complete control. A dash (-) response means no test result.

[1] = test system: ducksalad (Heteranthera limosa); assay: Test B flooded paddy test; conditions: for Plant response rating, Flood, Ducksalad: 250 g ai/ha, flooded paddy test, visual rating on 0 to 100 scale (0 no effect, 100 complete control) after 13 to 15 days; for Plant response rating, Ducksalad: Flood (flooded paddy test), 13 to 15 days; for Ducksalad plant response rating: Flood, 31 g ai/ha, scale 0 to 100 (0 no effect, 100 complete control)
From the text: as §1, §2

[2] = test system: barnyardgrass (Echinochloa crus-galli); assay: Test B flooded paddy test; conditions: for Plant response rating, Flood, Barnyardgrass: 250 g ai/ha, flooded paddy test, visual rating on 0 to 100 scale (0 no effect, 100 complete control) after 13 to 15 days; for Plant response rating, Barnyardgrass: Flood (flooded paddy test), 13 to 15 days; for Barnyardgrass plant response rating: Flood, 31 g ai/ha, scale 0 to 100 (0 no effect, 100 complete control)
From the text: as §1, §2

[3] = test system: umbrella sedge (Cyperus difformis); assay: Test B flooded paddy test; conditions: for Plant response rating, Flood, Sedge, Umbrella: 250 g ai/ha, flooded paddy test, visual rating on 0 to 100 scale (0 no effect, 100 complete control) after 13 to 15 days; for Plant response rating, Sedge, Umbrella: Flood (flooded paddy test), 13 to 15 days; for Sedge, Umbrella plant response rating: Flood, 31 g ai/ha, scale 0 to 100 (0 no effect, 100 complete control)
From the text: as §1, §2

[4] = test system: wheat (Triticum aestivum); assay: Test A pre-/postemergence plant response
From the text: (§3) Seeds of barnyardgrass (Echinochloa crus-galli), large crabgrass (Digitaria sanguinalis), giant foxtail (Setaria faberii), morningglory (Ipomoea spp.), pigweed (Amaranthus retroflexus), velvetleaf (Abutilon theophrasti), wheat (Triticum aestivum) and corn (Zea mays) were planted into a blend of loam soil and sand and treated preemergence with a directed soil spray using test chemicals formulated in a non-phytotoxic solvent mixture which included a surfactant. At the same time these species were also treated with postemergence applications of test compounds formulated in the same manner.
(§4) Plants ranged in height from two to ten cm and were in the one- to two-leaf stage for the postemergence treatment. Treated plants and untreated controls were maintained in a greenhouse for approximately ten days, after which time all treated plants were compared to untreated controls and visually evaluated for injury. Plant response ratings, summarized in Table A, are based on a 0 to 100 scale where 0 is no effect and 100 is complete control. A dash (-) response means no test result.

[5] = test system: barnyardgrass (Echinochloa crus-galli); assay: Test A pre-/postemergence plant response
From the text: as §3, §4

[6] = test system: pigweed (Amaranthus retroflexus); assay: Test A pre-/postemergence plant response
From the text: as §3, §4

[7] = test system: morningglory (Ipomoea spp.); assay: Test A pre-/postemergence plant response
From the text: as §3, §4

[8] = test system: velvetleaf (Abutilon theophrasti); assay: Test A pre-/postemergence plant response
From the text: as §3, §4

[9] = test system: large crabgrass (Digitaria sanguinalis); assay: Test A pre-/postemergence plant response
From the text: as §3, §4

[10] = test system: giant foxtail (Setaria faberii); assay: Test A pre-/postemergence plant response
From the text: as §3, §4

corn (Zea mays) = assay: Test A pre-/postemergence plant response
From the text: as §3, §4

[11] = 62 g ai/ha, scale of 0 to 100 where 0 is no effect and 100 is complete control
[12] = 125 g ai/ha, scale 0 to 100, 0 is no effect, 100 is complete control
[13] = Postemergence, 125 g ai/ha, 0 to 100 scale where 0 is no effect and 100 is complete control
[14] = Postemergence, 500 g ai/ha, 0 to 100 scale, 0 = no effect, 100 = complete control, approx. ten days
[15] = Preemergence, 125 g ai/ha, 0 to 100 scale, 0 = no effect, 100 = complete control
[16] = Preemergence, 500 g ai/ha, visual injury, 0 to 100 scale (0 no effect, 100 complete control), approx. ten days

CCCc1ncc(C(=O)C2=C(O)CCCC2=O)c(=O)n1Cc1ccc(OC)c(OC)c1 [Compound 84]
Plant response rating, Flood, Rice (rice (Oryza sativa)): 0
Plant response rating, Rice (rice (Oryza sativa); [11]): 0
Plant response rating, Rice (rice (Oryza sativa); [12]): 0
Rice plant response rating (rice (Oryza sativa)): 0
Plant response rating, Flood, Ducksalad [1]: 20
Plant response rating, Ducksalad [1, 11]: 0
Plant response rating, Ducksalad [1, 12]: 0
Ducksalad plant response rating [1]: 0
Plant response rating, Flood, Barnyardgrass [2]: 0
Plant response rating, Barnyardgrass [2, 11]: 0
Plant response rating, Barnyardgrass [2, 12]: 0
Barnyardgrass plant response rating [2]: 0
Plant response rating, Flood, Sedge, Umbrella [3]: 50
Plant response rating, Sedge, Umbrella [3, 11]: 0
Plant response rating, Sedge, Umbrella [3, 12]: 30
Sedge, Umbrella plant response rating [3]: 0
Plant response rating, Wheat [4, 13]: 0
Plant response rating, Wheat [4, 14]: 0
Plant response rating, Wheat [4, 15]: 0
Plant response rating, Wheat [4, 16]: 0
Plant response rating, Barnyardgrass [5, 13]: 0
Plant response rating, Barnyardgrass [5, 14]: 10
Plant response rating, Barnyardgrass [5, 15]: 0
Plant response rating, Barnyardgrass [5, 16]: 0
Plant response rating, Pigweed [6, 13]: 100
Plant response rating, Pigweed [6, 14]: 100
Plant response rating, Pigweed [6, 15]: 90
Plant response rating, Pigweed [6, 16]: 100
Plant response rating, Morningglory [7, 13]: 90
Plant response rating, Morningglory [7, 14]: 90
Plant response rating, Morningglory [7, 15]: 0
Plant response rating, Morningglory [7, 16]: 10
Plant response rating, Velvetleaf [8, 13]: 70
Plant response rating, Velvetleaf [8, 14]: 100
Plant response rating, Velvetleaf [8, 15]: 0
Plant response rating, Velvetleaf [8, 16]: 40
Plant response rating, Crabgrass, Large [9, 13]: 0
Plant response rating, Crabgrass, Large [9, 14]: 10
Plant response rating, Crabgrass, Large [9, 15]: 0
Plant response rating, Crabgrass, Large [9, 16]: 0
Plant response rating, Foxtail, Giant [10, 13]: 0
Plant response rating, Foxtail, Giant [10, 14]: 0
Plant response rating, Foxtail, Giant [10, 15]: 0
Plant response rating, Foxtail, Giant [10, 16]: 0
Plant response rating, Corn (corn (Zea mays); [13]): 0
Plant response rating, Corn (corn (Zea mays); [14]): 20
Plant response rating, Corn (corn (Zea mays); [15]): 0
Plant response rating, Corn (corn (Zea mays); [16]): 0

CCCc1ncc(C(=O)C2=C(O)CCCC2=O)c(=O)n1Cc1ccccc1 [Compound 103]
Plant response rating, Flood, Rice (rice (Oryza sativa)): 0
Plant response rating, Rice (rice (Oryza sativa); [11]): 0
Plant response rating, Rice (rice (Oryza sativa); [12]): 0
Rice plant response rating (rice (Oryza sativa)): 0
Plant response rating, Flood, Ducksalad [1]: 0
Plant response rating, Ducksalad [1, 11]: 0
Plant response rating, Ducksalad [1, 12]: 0
Ducksalad plant response rating [1]: 0
Plant response rating, Flood, Barnyardgrass [2]: 0
Plant response rating, Barnyardgrass [2, 11]: 0
Plant response rating, Barnyardgrass [2, 12]: 0
Barnyardgrass plant response rating [2]: 0
Plant response rating, Flood, Sedge, Umbrella [3]: 0
Plant response rating, Sedge, Umbrella [3, 11]: 0
Plant response rating, Sedge, Umbrella [3, 12]: 0
Sedge, Umbrella plant response rating [3]: 0
Plant response rating, Wheat [4, 13]: 0
Plant response rating, Wheat [4, 14]: 0
Plant response rating, Wheat [4, 15]: 0
Plant response rating, Wheat [4, 16]: 0
Plant response rating, Barnyardgrass [5, 13]: 30
Plant response rating, Barnyardgrass [5, 14]: 60
Plant response rating, Barnyardgrass [5, 15]: 0
Plant response rating, Barnyardgrass [5, 16]: 20
Plant response rating, Pigweed [6, 13]: 100
Plant response rating, Pigweed [6, 14]: 100
Plant response rating, Pigweed [6, 15]: 90
Plant response rating, Pigweed [6, 16]: 100
Plant response rating, Morningglory [7, 13]: 100
Plant response rating, Morningglory [7, 14]: 100
Plant response rating, Morningglory [7, 15]: 20
Plant response rating, Morningglory [7, 16]: 60
Plant response rating, Velvetleaf [8, 13]: 100
Plant response rating, Velvetleaf [8, 14]: 100
Plant response rating, Velvetleaf [8, 15]: 60
Plant response rating, Velvetleaf [8, 16]: 90
Plant response rating, Crabgrass, Large [9, 13]: 10
Plant response rating, Crabgrass, Large [9, 14]: 40
Plant response rating, Crabgrass, Large [9, 15]: 40
Plant response rating, Crabgrass, Large [9, 16]: 80
Plant response rating, Foxtail, Giant [10, 13]: 0
Plant response rating, Foxtail, Giant [10, 14]: 20
Plant response rating, Foxtail, Giant [10, 15]: 0
Plant response rating, Foxtail, Giant [10, 16]: 60
Plant response rating, Corn (corn (Zea mays); [13]): 0
Plant response rating, Corn (corn (Zea mays); [14]): 20
Plant response rating, Corn (corn (Zea mays); [15]): 0
Plant response rating, Corn (corn (Zea mays); [16]): 0
